According to patent US20100184810A1, “METHODS AND COMPOSITIONS RELATED TO RIBOSWITCHES THAT CONTROL ALTERNATIVE SPLICING” (Yale University, priority 2007, published 2010):
Like-named read-outs stand apart in the source and are kept apart here.

Experiments:
NMT1 riboswitch aptamer = test: In-line probing of NMT1 RNA constructs (TPP binding); parameters: species or system N. crassa
Experimental: In-line probing of RNA constructs. 5′ 32P-labeled RNAs were incubated at 23° C. for 40 hours in 50 mM Tris-HCl (pH 8.3 at 25° C.), 20 mM MgCl2 and 100 mM KCl in the presence or absence of TPP as defined. Cleavage products were separated by denaturing 10% PAGE, visualized by PhosphorImager (GE Healthcare), and quantified using ImageQuant software. KD values were determined by plotting the normalized fraction of RNA cleaved versus the logarithm of ligand concentration used. […] The results for in-line probing of 197 NMT1 and 115 NMT1 are depicted in FIG. 8 and FIG. 9, the results for 261 NMT1 are depicted in FIG. 10 and the results for 273 NMT1 are depicted in FIG. 11. Alternative base pairing similar to that being examined in the 273 NMT1 construct is observed in other fungal TPP riboswitches located in NMT1 mRNAs (FIG. 12).

NMT1 precursor mRNA = test system: NMT1 precursor mRNA
Experimental: (§1) RNA Analyses. RT-PCR analyses were conducted using RNA from untransformed N. crassa inoculated into 100 ml of Vogel's minimal medium supplemented with 0.5 mg ml-1 L-histidine. Cultures were grown at 30° C. with shaking at 150 rpm for 24 h either in the absence or presence of supplemented 30 μM thiamine. The cDNA was used as a template for PCR amplification of the 5′ regions of the three genes using primers and methods as described in Supplementary Information. All splicing products were confirmed by cloning and sequencing.
(§2) Reverse transcriptase-polymerase chain reaction (RT-PCR) analyses. Total RNA was isolated from mycelia using TRIzol® LS reagent (Invitrogen) according to the manufacturer's directions. 5 μg of total RNA was treated with RNase free DNase I (Promega) for 30 min at 37° C. cDNA was generated by reverse transcription with a polyT primer for 1 hr at 42° C. using SuperScript™ II Reverse Transcriptase (Invitrogen) according to the manufacturer's directions. To exclude the possibility of amplification products originating from contamination with genomic DNA, control reactions using RNA preparations before RT were performed and, for NMT1, a reverse primer spanning an exon-exon border in the coding region was used.
as §2, with “used. […] For sequence identification all amplification products were cloned and confirmed by sequencing several independent clones.” for “used.”
(§3) A specific primer combination was used for every gene with one primer binding to the annotated 5′ end of the transcript and a second primer binding immediately downstream of the riboswitch-containing intron. For the NMT1 gene, the primers used for PCR were DNA37 and DNA38 (FIG. 14), corresponding to the annotated 5′ end of the NMT1 mRNA and a region approximately 50 nucleotides downstream of the TPP riboswitch-containing intron, respectively. For the THI4 (CyPBP37) gene, the primers used were DNA39 and DNA40, corresponding to the 5′ end of the mRNA and a region approximately 125 nucleotides downstream of the TPP riboswitch-containing intron, respectively.

THI4 precursor mRNA = conditions: 30 μM thiamine in growth medium, 24 h
Experimental: as §1, §2
as §2, with “used. […] For sequence identification all amplification products were cloned and confirmed by sequencing several independent clones.” for “used.”
as §3

[1] = test system: FREQUENCY (FRQ) transcripts; conditions: 30 μM thiamine in minimal medium
Experimental: as §2
Reverse transcriptase-polymerase chain reaction (RT-PCR) analyses. Total RNA was isolated from mycelia using TRIzol® LS reagent (Invitrogen) according to the manufacturer's directions. 5 μg of total RNA was treated with RNase free DNase I (Promega) for 30 min at 37° C. cDNA was generated by reverse transcription with a polyT primer for 1 hr at 42° C. using SuperScript™ II Reverse Transcriptase (Invitrogen) according to the manufacturer's directions. […]

[2] = test system: TPP riboswitch in the N. crassa NCU01977.1 mRNA; conditions: 30 μM thiamine, 24 h
Experimental: LUC activity was normalized to the value measured at t=0 h.
Luciferase reporter gene assays. Mycelia from N. crassa transformed with LUC reporter constructs were isolated by filtration and approximately 100 mg of tissue was ground to a fine powder. After addition of 100 gl 1× Passive Lysis Buffer (Promega), the samples were vigorously mixed and incubated on ice for 30 min followed by centrifugation for 15 minutes at 13,000 g. Luciferase activity was determined for the resulting supernatant using the Luciferase Assay System (Promega) and a plate-reading luminometer (Wallac). Luciferase activity was normalized over total protein concentration of the extract as determined by Bradford Protein Assay (BioRad) and finally expressed relative to a reference construct.
(§4) Luciferase reporter gene assays. Mycelia from N. crassa transformed with LUC reporter constructs were isolated by filtration and approximately 100 mg of tissue was ground to a fine powder. […] Luciferase activity was determined for the resulting supernatant using the Luciferase Assay System (Promega) and a plate-reading luminometer (Wallac). Luciferase activity was normalized over total protein concentration of the extract as determined by Bradford Protein Assay (BioRad) and finally expressed relative to a reference construct.

[3] = test system: thiA mRNA carrying a TPP aptamer; conditions: thiamine supplementation of growth medium; cited from earlier work
[4] = 30 μM thiamine added at t=0 to culture grown in thiamine-free medium

Experimental for NMT1 TPP riboswitch: Reporter Gene Assays. Transformation of N. crassa was conducted using electroporation of freshly suspended macroconidia and insertion of the target gene was verified by PCR with insert specific primers from genomic DNA. Transcription of luciferase reporter constructs was constitutively driven by the N. crassa beta-tubulin (BTUB) promoter inserted upstream of the NMT1 5′ UTR. […] Samples were isolated and assayed for luciferase activity as described below.
as §4
Luciferase reporter gene assays. […] Luciferase activity was determined for the resulting supernatant using the Luciferase Assay System (Promega) and a plate-reading luminometer (Wallac). Luciferase activity was normalized over total protein concentration of the extract as determined by Bradford Protein Assay (BioRad) and finally expressed relative to a reference construct.

Kd (NMT1 riboswitch aptamer; both constructs (197 NMT1 and 115 NMT1), in-line probing, 23° C., 40 hours, 20 mM MgCl2, read-out: apparent dissociation constant (KD)) [nM]	structural modulation of nucleotides at the branch site (NMT1 riboswitch aptamer; in-line probing of 261 NMT1 RNA, 10 μM TPP)	structural modulation at the second 5′ splice site (NMT1 riboswitch aptamer; in-line probing of 273 NMT1 RNA, 10 μM TPP)	SMILES	NMT1 transcript types within four hours after thiamine supplementation (NMT1 precursor mRNA; [4])	NMT1 transcript types within the first hour after thiamine supplementation (NMT1 precursor mRNA; [4])	effect on splicing of NMT1 precursor mRNA (NMT1 precursor mRNA; 30 μM thiamine in growth medium, 24 h)	effect on splicing of THI4 precursor mRNA (THI4 precursor mRNA)	effect on splicing of an RNA that does not carry the TPP riboswitch (FRQ) [1]	effect on splicing of an RNA that does not carry the TPP riboswitch (FRQ) ([1]; listed as Thiamine)	LUC expression, constructs I-2R and I-3R (TPP riboswitch absent) (NMT1 TPP riboswitch; 30 μM thiamine in the medium)	LUC reporter expression, wild-type (WT) NMT1 construct (NMT1 TPP riboswitch; grown overnight in medium supplemented with 30 μM thiamine)	LUC expression, NCU01977.1 reporter fusion construct [2]	thiA gene expression [3]
~0.3	more structured	more flexible structure	Cc1ncc(C[n+]2csc(CCO[P@](=O)(O)OP(=O)(O)O)c2C)c(N)n1 [TPP, thiamine pyrophosphate]	–	–	–	–	–	–	–	–	–	–
–	–	–	Cc1ncc(C[n+]2csc(CCO)c2C)c(N)n1 [thiamine]	I-3 is almost completely replaced by I-2 and I-1	the splicing product I-2 and the unspliced NMT1 precursor RNA I-1 appear	causes alternative splicing	causes alternative splicing	do not change in number relative to each other	does not affect splicing	unchanged	Substantial repression	an increase in LUC expression	reduced gene expression
